Results from PubChem BioAssay AID463251 (The Scripps Research Institute Molecular Screening Center, 2010).
Calls of active or inactive are those of the source. Cut-off not given; nearly all actives show IC50 up to about 7.3 µM.

Molecular target: Neuropeptides B/W receptor type 1 (Homo sapiens) (UniProt P48145)
Test: GPR7 antagonist potency, late-stage follow-up, cell-based, fluorescence, dose response (AID 463251)
Details: GPR7-expressing cells, fluorescence read-out, antagonist mode

Sequence of Neuropeptides B/W receptor type 1 (Homo sapiens) (P48145 whole entry, looked up): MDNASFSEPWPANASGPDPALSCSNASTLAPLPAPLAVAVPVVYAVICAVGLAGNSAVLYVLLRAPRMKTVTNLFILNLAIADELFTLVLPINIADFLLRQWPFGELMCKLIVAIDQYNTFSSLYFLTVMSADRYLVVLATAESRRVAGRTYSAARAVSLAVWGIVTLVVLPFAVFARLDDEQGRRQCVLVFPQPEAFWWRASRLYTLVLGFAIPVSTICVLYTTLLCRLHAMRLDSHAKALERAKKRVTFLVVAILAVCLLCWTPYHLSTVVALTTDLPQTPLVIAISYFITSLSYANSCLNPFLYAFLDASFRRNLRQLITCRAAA

Row | IC50 | inhibition (at 20 µM (top of the series)) | Structure (SMILES)
1 | 6200 nM | – | COc1ccc(Oc2c(C3CC3)cnn(-c3ccc(C)cc3)c2=O)cc1
2 | 1300 nM | – | COc1ccc(Oc2c(Cl)cnn(-c3cccc(C)c3C)c2=O)cc1
3 | 7500 nM | – | COc1ccc(Oc2c(C)cnn(-c3ccc(C(C)C)cc3)c2=O)cc1
4 | 2300 nM | – | Cc1ccc(-n2ncc(Cl)c(Oc3ccc(CO)cc3)c2=O)cc1
5 | 4200 nM | – | COc1ccc(Oc2c(C#N)cnn(-c3ccc(C(C)C)cc3)c2=O)cc1
6 | 2400 nM | – | C=Cc1cnn(-c2ccc(C(C)C)cc2)c(=O)c1Oc1ccc(OC)cc1
7 | 5600 nM | – | COc1ccc(Oc2c(CO)cnn(-c3ccc(C(C)C)cc3)c2=O)cc1
9 | – | inactive | O=C(C1CCCCN1Cc1ccccc1)N1CCN(c2ccc([N+](=O)[O-])cc2)CC1 (configuration not stated)
10 | 1400 nM | – | COc1ccc(Oc2c(Cl)cnn(-c3cc(C)ccc3C)c2=O)cc1
11 | 2700 nM | – | COC(=O)c1cnn(-c2ccc(C(C)C)cc2)c(=O)c1Oc1ccc(OC)cc1
12 | 1700 nM | – | COc1ccc(Oc2c(Cl)cnn(Cc3ccc(C)cc3)c2=O)cc1
13 | 2200 nM | – | COc1ccc(Oc2c(Cl)cnn(-c3ccc(C)cc3)c2=O)cc1
14 | 1200 nM | – | CCOC(=O)c1ccc(-n2ncc(Cl)c(Oc3ccc(OC)cc3)c2=O)cc1
15 | 724 nM | – | CCOc1ccc(Oc2c(Br)cnn(-c3ccc(C(C)C)cc3)c2=O)cc1
16 | inactive | – | CC(C)c1ccc(-n2ncc(Cl)c(Oc3ccc(OC(F)(F)F)cc3)c2=O)cc1
17 | 6200 nM | – | COc1ccc(Oc2c(C=O)cnn(-c3ccc(C(C)C)cc3)c2=O)cc1
